Data as given in US20240180872A1, “METHODS AND COMPOUNDS OF CANNABIDIOL, MELATONIN AND AKBA FOR TREATING PANCREATIC CANCER” (priority 2021, published 2024).

Legend:
[1] = system: U251 Glioblastoma cell line; assay: Cytotoxicity assay (MTT, 72 hours, daily administration) in U251; assay type: cell-based; details: Homo sapiens, U-251, read-out: % VIABILITY ± S.D.
Source text: (§1) The combinations were effective in other human tumor cell lines and we tested in glioblastoma cell line and endometrial cancer cell Additional tests include data obtained from two independent experiments, six wells for dose.

[2] = system: pancreatic adenocarcinoma associated genes; assay: TaqMan Array gene expression in MIAPaCa-2, normalized for GAPDH; assay type: cell-based, Human; details: Mia-PACA-2, 24 hs, CBD 3.8, MLT 200, AKBA 7.5 micrograms/ml
Procedure: Total RNA from untreated or CBD, MLT, AKBA alone and in combination treated cell lines was extracted using Rneasy Mini kit (Qiagen, Milan, Italy). One microgram of total RNA from each sample was subjected to reverse transcription in a total volume of 20 μL using the High-Capacity cDNA Archive Kit (Applied Biosystem, Foster City, […], USA) according to the instructions. cDNAs were analyzed by qRT-PCR performed using an IQ5 Multicolor Real time PCR Detection system. Quantitative real-time gene expression was performed with the TaqMan® Array Human Pancreatic Adenocarcinoma 96-well Plate, containing 92 assays to pancreatic adenocarcinoma associated genes and 4 assays to candidate endogenous control genes, was purchased (Thermo Fisher, Grand Island, NY, USA) and used to evaluate the treatments in modulating PDAC-related genes (Table 1). Measurement of different housekeeping genes (GAPDH; HPRT1; GUSB) on the samples was used to normalize mRNA content. The gene expression levels of treated cell lines were expressed as relative fold compared with untreated or vehicle-treated cells.
To elucidate the molecular events induced by CBD, MLT and AKBA alone and in combination, 92 genes involved in PDAC progression and aggressiveness were evaluated by Taqman Array. Both cell lines were treated with CBD, MLT and AKBA alone and in combination, and the molecular pathways of PDAC associated gene were evaluated.
Target mRNA levels were normalized for GAPDH expression.

[3] = system: PCEM004a endometrial cancer cell line; assay: Cytotoxicity assay (MTT, 72 hours, daily administration) in PCEM004a; assay type: cell-based; details: Homo sapiens, read-out: % VIABILITY ± S.D.
Source text: as §1

[4] = system: MIAPaCa-2 cell line; assay: Cytotoxicity assay (MTT, 72 hours, daily administration) in MIAPaCa-2; details: Homo sapiens, MIA PaCa-2, read-out: % VIABILITY ± S.D.
[5] = cited from earlier work
[6] = normalized for GAPDH, Akt pathways
[7] = normalized for GAPDH, Akt-pathways
[8] = normalized for GAPDH, DNA repair
[9] = normalized for GAPDH, NfkB pathways
[10] = normalized for GAPDH, Ras pathways
[11] = normalized for GAPDH, TGF patways
[12] = normalized for GAPDH, TGF-patways
[13] = normalized for GAPDH, angiogenesis
[14] = normalized for GAPDH, apoptosis
[15] = normalized for GAPDH, cell cycle
[16] = normalized for GAPDH, inflammation
[17] = normalized for GAPDH, proliferation

SMILES: CC(=O)O[C@@H]1CC[C@@]2(C)[C@@H](CC[C@]3(C)[C@@H]2C(=O)C=C2[C@@H]4[C@@H](C)[C@H](C)CC[C@]4(C)CC[C@]23C)[C@@]1(C)C(=O)O [AKBA, (3R,4R,4aR,6aR,6bS,8aR,11R,12S,12aR,14aR,14bS)-3-acetyloxy-4,6a,6b,8a,11,12,14b-heptamethyl-14-oxo-1,2,3,4a,5,6,7,8,9,10,11,12,12a, 14a-tetradecahydropicene-4-carboxylic acid]
- viability at 5 µg/mL ([1]; AKBA 5 micrograms/ml): 100 ± 5.3%
- viability at 7.5 µg/mL ([1]; AKBA 7.5 micrograms/ml): 100 ± 6.6%
- viability at 10 µg/mL ([1]; AKBA 10 micrograms/ml): 100 ± 2.2%
- viability at 15 µg/mL ([1]; AKBA 15 micrograms/ml): 76.4 ± 4.2%
- GAPDH relative expression ([2]; GAPDH is the normalizer): 1.00
- PK3CB relative expression [2, 6]: 0.19
- PK3CD relative expression [2, 6]: 0.06
- AKT1 relative expression [2, 7]: 0.18
- AKT2 relative expression [2, 7]: 0.49
- AKT3 relative expression [2, 7]: 0.00
- IGF1 relative expression [2, 7]: 0.00
- PK3CA relative expression [2, 7]: 0.02
- PK3R1 relative expression [2, 7]: 0.04
- BRCA2 relative expression [2, 8]: 0.12
- MDM2 relative expression [2, 8]: 0.05
- TP53 relative expression [2, 8]: 0.35
- HSP90AA1 relative expression ([2]; normalized for GAPDH, Heat sock protein): 0.26
- NFKB1 relative expression [2, 9]: 0.12
- NFKB2 relative expression [2, 9]: 0.12
- REL relative expression [2, 9]: 0.09
- RELA relative expression [2, 9]: 0.11
- RELB relative expression [2, 9]: 0.13
- RHOA relative expression [2, 9]: 0.33
- RHOB relative expression [2, 9]: 0.06
- BRAF relative expression [2, 10]: 0.22
- E2F1 relative expression [2, 10]: 0.17
- E2F3 relative expression [2, 10]: 0.08
- E2F4 relative expression [2, 10]: 0.22
- EGF relative expression [2, 10]: 0.00
- EGFR relative expression [2, 10]: 0.22
- ELK1 relative expression [2, 10]: 0.13
- ERBB2 relative expression [2, 10]: 0.08
- GRB2 relative expression [2, 10]: 0.46
- HBEGF relative expression [2, 10]: 0.53
- KRAS relative expression [2, 10]: 0.11
- MAP2K1 relative expression [2, 10]: 0.12
- MAP2K2 relative expression [2, 10]: 0.12
- MAPK1 relative expression [2, 10]: 0.72
- MAPK3 relative expression [2, 10]: 0.00
- RAF1 relative expression [2, 10]: 0.10
- RB1 relative expression [2, 10]: 0.17
- SOS1 relative expression [2, 10]: 0.11
- TGFB2 relative expression [2, 11]: 0.10
- TGFB3 relative expression [2, 11]: 0.05
- TGFBR1 relative expression [2, 11]: 0.06
- SMAD2 relative expression [2, 12]: 0.04
- SMAD3 relative expression [2, 12]: 0.22
- SMAD4 relative expression [2, 12]: 0.10
- TGFA relative expression [2, 12]: 0.02
- TGFB1 relative expression [2, 12]: 0.13
- TGFBR2 relative expression [2, 12]: 0.09
- FIGF relative expression [2, 13]: 0.00
- VEGFA relative expression [2, 13]: 0.41
- VEGFB relative expression [2, 13]: 0.16
- VEGFC relative expression [2, 13]: 0.11
- BCL2L1 relative expression [2, 14]: 0.28
- BCL2 relative expression [2, 14]: 0.00
- BIRC5 relative expression [2, 14]: 0.26
- CCNA2 relative expression [2, 15]: 0.12
- CCNB1 relative expression [2, 15]: 0.24
- CCND1 relative expression [2, 15]: 0.12
- CCND2 relative expression [2, 15]: 0.00
- CCNE1 relative expression [2, 15]: 0.12
- CCNE2 relative expression [2, 15]: 0.10
- CDC42 relative expression [2, 15]: 0.02
- CDK2 relative expression [2, 15]: 0.12
- CDK4 relative expression [2, 15]: 0.30
- CDKN1A relative expression [2, 15]: 0.34
- CDKN1B relative expression [2, 15]: 0.12
- CDKN2A relative expression [2, 15]: 0.14
- CDKN2B relative expression [2, 15]: 0.24
- CDKN2C relative expression [2, 15]: 0.14
- CDKN2D relative expression [2, 15]: 0.06
- IL6 relative expression [2, 16]: 0.00
- JAK1 relative expression [2, 16]: 1.32
- JAK2 relative expression [2, 16]: 0.05
- JAK3 relative expression [2, 16]: 0.04
- STAT1 relative expression [2, 16]: 0.34
- STAT2 relative expression [2, 16]: 0.12
- STAT3 relative expression [2, 16]: 0.20
- STAT6 relative expression [2, 16]: 0.12
- STATSB relative expression [2, 16]: 0.22
- MMP1 relative expression ([2]; normalized for GAPDH, invasion): 0.02
- MMP2 relative expression ([2]; normalized for GAPDH, invasion): 0.24
- MMP3 relative expression ([2]; normalized for GAPDH, invasion): 0.00
- MMP7 relative expression ([2]; normalized for GAPDH, invasion): 0.04
- MMP9 relative expression ([2]; normalized for GAPDH, invasion): 0.04
- PTGS2 relative expression ([2]; normalized for GAPDH, invasion): 0.10
- RAC1 relative expression ([2]; normalized for GAPDH, invasion): 0.12
- RAC2 relative expression ([2]; normalized for GAPDH, invasion): 0.01
- KIT relative expression [2, 17]: 0.00
- NOTCH1 relative expression [2, 17]: 0.06
- SRC relative expression [2, 17]: 0.15
- viability at 5 µg/mL ([3]; AKBA 5 micrograms/ml): 100 ± 7.5%
- viability at 7.5 µg/mL ([3]; AKBA 7.5 micrograms/ml): 98.4 ± 6.3%
- viability at 10 µg/mL ([3]; AKBA 10 micrograms/ml): 87.4 ± 5.8%
- viability at 15 µg/mL ([3]; AKBA 15 micrograms/ml): 60.2 ± 5.4%
- viability at 5 µg/mL [4]: 110 ± 7.3%
- viability at 7.5 µg/mL [4]: 74.8 ± 6.2%
- viability at 10 µg/mL [4]: 55.3 ± 4.8%
- viability at 15 µg/mL [4]: 12.1 ± 0.9%
- solubility ([5]; 1:2 solution of DMSO:PBS (pH 7.2)): approximately 0.3 mg/ml
- solubility in aqueous buffers ([5]; aqueous buffers): sparingly soluble
